Experimental findings from patent US20230212305A1, “ANTI-ABCG2 ANTIBODIES AND USES THEREOF” (Kenjockety Biotechnology, Inc., priority 2020, published 2023) are described below.

The subject of one series is cynomolgus ABCG2. Briefly: Flow cytometry binding to 293T cells overexpressing cynomolgus ABCG2. Also on record: key to Cynomolgus ABCG2 binding: binding=“+”; non-significant binding=“−”. As for the experimental part:
(§1) Cell Binding Assays. Antibody binding to cells was evaluated by flow cytometry. 293T cells stably transfected to express human or cynomolgus ABCG2 (293T_ABCG2_OX) were washed once in flow cytometry buffer (PBS+2% FBS+0.02% sodium azide), resuspended at 2×10^6 cells/mL in flow cytometry buffer, and dispensed into 96-well microtiter plates at 0.1 mL/well. Recombinant antibodies were added to cells at 5 ug/mL for initial binding confirmation, or serially diluted from 100 ug/mL in flow cytometry buffer. After incubating cells on ice for 30 min, cells were washed twice with flow cytometry buffer. Bound antibody was detected with PE-labeled F(ab′)2 fragment goat anti-human IgG (Jackson ImmunoResearch) and evaluated on an Attune NxT flow cytometer. EC50 is calculated to be the concentration of antibody that gives half maximal response.
For orientation: Flow cytometry measures light scatter and fluorescence of single cells or particles in a stream.

Series [1] addresses T1, ABCG2 (Homo sapiens, UniProt Q9UNQ0).
T1 construct: expressed in transfected cells
T1 sequence (Q9UNQ0 1-655): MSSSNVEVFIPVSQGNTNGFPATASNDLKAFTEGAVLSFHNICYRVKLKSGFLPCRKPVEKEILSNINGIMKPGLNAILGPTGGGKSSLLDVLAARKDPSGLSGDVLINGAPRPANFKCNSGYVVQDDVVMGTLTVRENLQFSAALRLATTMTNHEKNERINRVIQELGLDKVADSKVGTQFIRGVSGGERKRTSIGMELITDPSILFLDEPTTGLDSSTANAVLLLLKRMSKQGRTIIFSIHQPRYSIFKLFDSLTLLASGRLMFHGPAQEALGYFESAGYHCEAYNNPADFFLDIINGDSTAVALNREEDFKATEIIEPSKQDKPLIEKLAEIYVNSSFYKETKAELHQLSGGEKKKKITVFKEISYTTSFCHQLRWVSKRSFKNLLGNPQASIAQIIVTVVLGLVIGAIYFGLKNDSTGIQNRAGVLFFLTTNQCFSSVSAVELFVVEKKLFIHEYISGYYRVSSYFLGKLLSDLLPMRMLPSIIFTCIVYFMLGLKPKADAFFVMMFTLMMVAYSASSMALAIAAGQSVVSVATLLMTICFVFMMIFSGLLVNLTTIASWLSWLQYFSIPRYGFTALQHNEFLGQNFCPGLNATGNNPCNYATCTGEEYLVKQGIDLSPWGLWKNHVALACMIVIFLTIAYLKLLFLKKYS
In kind it is cell-based. As for the experimental part:
293T_ABCG2_OX cells were washed several times and aliquoted into 96-well plates as 50 μl aliquots/well at a cell density of 2×10e6 cells per ml in phenol red-free DMEM. Cells were mixed with 50 μl antibodies or the small molecule inhibitors of ABCG2:-fumitremorgin C (FTC), or its tetracyclic analogue K0143, with a final concentration of 1 μM. Cells were then incubated in the presence of 2.5 μM Mitoxantrone 1 h at 37° C. The cells were subsequently washed twice and finally resuspended in […] PBS. Mitoxantrone fluorescence was measured using excitation at 635 nm and emission at 647 nm. Protocols was measuring efflux blockade are found in Szabo E, et al., PLoS One. 2018 Jan. 17; 13(1):e0190629; Deeken J F, et al., Mol Pharmacol. 2009 November; 76(5):946-56).

For another series, the system named is 293T_ABCG2_OX cells. In kind it is cell-based, human. The conditions noted are these: cell killing by topotecan on 293T_ABCG2_OX cells; viability relative to IgG control. As for the experimental part:
Cytotoxicity Assays. The effect of antibodies on topotecan cytotoxicity was evaluated on 293T_ABCG2_OX cells, 293T cells stably transfected to express ABCG2. Cells were plated in 0.05 mL of Assay Media (DMEM+10% FBS) at 5000 cells/well in white, flat bottom 96-well tissue culture plates. Topotecan was prepared at 2× final assay concentration by serial dilution from 200 uM in assay media containing test antibodies or control antibodies at 100 ug/mL (2× final concentration), or Fumitremorgin C, a small molecule ABCG2 inhibitor at 20 uM (2× final concentration). An equivalent volume (0.05 mL) of the topotecan/antibody mixture was added to the 293T_ABCG2_OX cells in 96-well plates. The plates were then incubated at 37° C., in 5% CO2. After 72-96 hr plates were equilibrated to room temperature and cell viability assessed using Promega® CellTiter-Glo® Luminescent Cell Viability Assay according to the manufacturer's recommended protocol. Luminescence was measured on a Molecular Devices® FlexStation® 3 Multi-Mode Microplate Reader and data analyzed using GraphPad Prism 8.0 software. Half maximal inhibitory concentration (1050) is the concentration of drug (topotecan or other chemotherapy cytotoxic agent) where the response (cell growth) is reduced by 50%.

The target in series [2] is T1, ABCG2. In words: Flow cytometry binding to 293T cells overexpressing human ABCG2 (293T_ABCG2_OX). Also on record: key to Binding by FACS: binding=“+”; non-significant binding=“−”. As for the experimental part:
as §1

Sequence of cynomolgus ABCG2 (as listed by the source): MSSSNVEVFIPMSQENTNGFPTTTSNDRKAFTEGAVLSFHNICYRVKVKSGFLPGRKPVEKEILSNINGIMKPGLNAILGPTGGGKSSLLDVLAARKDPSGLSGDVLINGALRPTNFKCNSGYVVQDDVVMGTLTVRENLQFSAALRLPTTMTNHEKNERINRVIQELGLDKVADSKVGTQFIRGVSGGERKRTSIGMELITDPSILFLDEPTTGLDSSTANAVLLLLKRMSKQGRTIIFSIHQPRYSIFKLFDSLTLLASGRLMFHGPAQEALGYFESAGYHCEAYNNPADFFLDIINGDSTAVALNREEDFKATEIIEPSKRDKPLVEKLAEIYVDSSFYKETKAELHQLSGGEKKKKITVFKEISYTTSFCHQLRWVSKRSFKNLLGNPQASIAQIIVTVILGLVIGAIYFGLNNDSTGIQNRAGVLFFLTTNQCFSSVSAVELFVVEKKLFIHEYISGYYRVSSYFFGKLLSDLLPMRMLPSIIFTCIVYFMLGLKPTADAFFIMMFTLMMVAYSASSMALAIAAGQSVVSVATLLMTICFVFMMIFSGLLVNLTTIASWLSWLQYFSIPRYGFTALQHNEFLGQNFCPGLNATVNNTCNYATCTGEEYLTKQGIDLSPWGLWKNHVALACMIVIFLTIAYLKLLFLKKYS

Regarding “5D3: anti-Human ABCG2 Antibody (Clone 5D3) from R&D Systems [Antibody 5D3, reference compound]”, the “Cynomolgus ABCG2 binding” value with cynomolgus ABCG2 is “+”. Also, the “binding to cynomolgus ABCG2 (cG2) expressed by 3T3 cells” value in the series with cynomolgus ABCG2 (FIG. 1B, 3T3 cells stably transfected with cABCG2) is reported as “binds”. Moreover, the “Block Efflux” value with ABCG2 [1] is given as “+”. For the same substance, the Killing entry in the series with 293T_ABCG2_OX cells is “++ (viability ≥10% and <30% of IgG control)”. Moreover, the “Binding by FACS” value with ABCG2 [2] (293T_ABCG2_OX cells) is reported as “+”. Also, the “binding to human ABCG2 expressed on 3T3 and C6 cell lines” value with ABCG2 [2] (FIG. 1B, stably transfected cells) is “binds”.
